Reference: patent publication US9464064B2, “HCV helicase inhibitors and methods of use thereof” (University of Kansas, priority 2011, dated 2016)

Target: T1, HCV NS3 helicase NS3h_1b(con1) (Hepatitis C virus genotype 1b, UniProt Q9WMX2)
T1 construct: truncated C-terminally His-tagged NS3 proteins lacking the N-terminal protease, called NS3h; His-tag (C); made in house
Assay: MBHA screen of NCI mechanistic set library at 20 μM (percent inhibition, compound interference)
Assay type: biochemical
Conditions: compounds at 20 μM; for Inh. (%) (Inhibition): calculated from Equation 1
Summary of the method: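 Molecular beacon-based DNA unwinding assay; compounds screened at 20 μM in triplicate, with DMSO-only negative and 500 nM dT20 positive controls. Fluorescence (ex 643/em 670 nm) was read before and 30 min after adding ATP to 1 mM. Percent inhibition came from the change relative to DMSO controls; interference from pre-ATP fluorescence versus DMSO controls.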

[1] = assay interference calculated with Equation 2 (fluorescence vs DMSO-only controls before ATP)
[2] = MBHA with DNA substrate, assay interference calculated with Equation 2

T1 sequence (Q9WMX2 1192-1657): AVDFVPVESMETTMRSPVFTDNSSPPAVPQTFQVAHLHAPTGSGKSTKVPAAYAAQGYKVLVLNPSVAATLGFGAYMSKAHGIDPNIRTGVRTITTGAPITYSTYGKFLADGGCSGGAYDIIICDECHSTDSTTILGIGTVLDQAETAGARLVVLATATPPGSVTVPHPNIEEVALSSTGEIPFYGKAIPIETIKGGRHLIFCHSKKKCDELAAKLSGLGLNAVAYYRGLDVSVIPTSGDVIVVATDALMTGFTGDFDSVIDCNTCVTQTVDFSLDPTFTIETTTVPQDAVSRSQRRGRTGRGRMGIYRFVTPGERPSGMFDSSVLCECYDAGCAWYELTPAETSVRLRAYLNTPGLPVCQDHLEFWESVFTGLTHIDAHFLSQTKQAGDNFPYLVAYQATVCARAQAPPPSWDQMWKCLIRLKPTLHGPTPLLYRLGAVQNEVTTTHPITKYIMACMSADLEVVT

SMILES | Inh. (%) (Inhibition) (MBHA with a DNA substrate) | Int.* (Ratio) (Interference) [1] | Int.* (Ratio) (Interference) [2] | Inh. (%) (Inhibition) (MBHA with DNA substrate)
O=C1c2ccccc2-c2c1c1ccccc1c(=O)n2Cc1ccccc1 [Compound 337612] |  |  | 0.97 Ratio | −16.5%
COC1(O)C(=O)c2ccccc2OC1(OC)c1ccccc1 (centres unmarked) [Compound 95848] | 7.7% | 0.90 Ratio |  | 
Cc1cc(N(CC(C)Br)CC(C)Br)ccc1N=Nc1ccccc1C(=O)O (centres unmarked) [Compound 240419] |  |  | 0.94 Ratio | −2.7%
Nc1ccc2c(c1)CN1C(=O)c3ccccc3C1=N2 [Compound 320846] | 10.7% | 0.90 Ratio |  | 
NC(=S)NN=Cc1ncccc1O [Compound 95678] |  |  | 0.98 Ratio | −9.0%
Nc1ccc2c(c1)S(=O)(=O)c1cc(N)ccc1-2 [Compound 13966] |  |  | 1.13 Ratio | −14.1%
CC[C@@]1(O)C[C@H](O[C@H]2C[C@H](N(C)C)[C@H](O[C@H]3C[C@@H]4O[C@H]5CC(=O)[C@H](C)O[C@H]5O[C@@H]4[C@H](C)O3)[C@H](C)O2)c2c(cc3c(c2O)C(=O)c2c(O)ccc(O)c2C3=O)[C@H]1C(=O)OC [Compound 243023] |  |  | 0.46 Ratio | 24.2%
CC(C)=CC1C(C(=O)O)C1(C)C (centres unmarked) [Compound 11779] |  |  | 0.89 Ratio | 16.8%
Clc1ccc(C(c2ccccc2Cl)C(Cl)Cl)cc1 (centres unmarked) [Compound 38721] |  |  | 0.93 Ratio | 0.3%
CNc1nc(N(C)C)nc(N(C)C)n1 [Compound 118742] | 10.6% | 1.01 Ratio |  | 
COC1/C=C/OC2(C)Oc3c(C)c(O)c4c(c3C2=O)C(=O)C=C(NC(=O)/C(C)=C\C=C\C(C)C(OC=O)C(C)C(O)C(C)C(OC(C)=O)C1C)C4=O (centres unmarked) [Compound 239375] |  |  | 0.90 Ratio | −18.3%
NC1=C(Br)C(=O)c2ncccc2C1=O [Compound 105808] |  |  | 1.14 Ratio | 2.6%
O=C(C[n+]1ccc2ccccc2c1)c1ccc2ccc3ccccc3c2c1 [Compound 35489] |  |  | 1.04 Ratio | 18.7%
Nc1ccn([C@@H]2C=C(CO)[C@@H](O)[C@H]2O)c(=O)n1 [Compound 375575] |  |  | 0.93 Ratio | 12.9%
CN(C)c1ccc(/C=N/N=C2\C(=O)Nc3c(Cl)cc(Cl)cc32)cc1 [Compound 327697] |  |  | 1.22 Ratio | −10.2%
OC[C@H]1O[C@@H](n2cnc3cncnc32)[C@H](O)[C@@H]1O [Compound 65423] |  |  | 1.12 Ratio | 2.0%
CCOC(=O)Nc1cc2c(c(N)n1)N=C(c1ccccc1)CN2 [Compound 330770] |  |  | 0.91 Ratio | −1.6%

SMILES | Inh. (%) (Inhibition) (MBHA with a DNA substrate) | Int.* (Ratio) (Interference) [1] | Int.* (Ratio) (Interference) [2] | Inh. (%) (Inhibition) (MBHA with DNA substrate)
[O-][n+]1ccccc1[S-].[O-][n+]1ccccc1[S-].[Zn+2] [Compound 68093] |  |  | 0.90 Ratio | 19.5%
CCN(CC)CCCC(C)NC(=O)c1ccc2c(c1)C(=O)c1ccccc1C2=O.Cl (centres unmarked) [Compound 331757] |  |  | 0.93 Ratio | −16.9%
CCN(CCO)CCNc1ccc(C)c2sc3ccccc3c(=O)c12 [Compound 20534] |  |  | 0.96 Ratio | 15.7%
c1coc(CNc2ncnc3[nH]ncc23)c1 [Compound 1620] | −3.0% | 1.06 Ratio |  | 
C=C1C(=O)OC2C1CC1OC2C(C)CCC/C(C)=C\CCC1(C)O (centres unmarked) [Compound 282752] | −5.5% | 1.00 Ratio |  | 
O=C1Nc2c(Cl)cc(Cl)cc2C1=NN=Cc1ccco1 [Compound 329279] |  |  | 0.94 Ratio | 1.9%
Cc1c(N)nc([C@H](CC(N)=O)NC[C@H](N)C(N)=O)nc1C(=O)N[C@H](C(=O)N[C@H](C)[C@@H](O)[C@H](C)C(=O)N[C@H](C(=O)NCCc1nc(-c2nc(C(=O)NCCC[S+](C)C)cs2)cs1)[C@@H](C)O)[C@@H](OC1OC(CO)C(O)C(O)C1OC1OC(CO)C(O)C(OC(N)=O)C1O)c1cnc[nH]1 (some centres unmarked) [Compound 125066] |  |  | 0.79 Ratio | 15.8%
N#CC(=S)Nc1ccc(F)cc1 [Compound 369317] |  |  | 0.95 Ratio | 2.8%
O=C(CC(=O)C(F)(F)F)c1csc2ccccc12 [Compound 80396] |  |  | 1.12 Ratio | −10.6%
NP(=O)(Oc1c2occc2cc2ccc(=O)oc12)N(CCCl)CCCl (centres unmarked) [Compound 345081] | 9.2% | 0.95 Ratio |  | 
c1ccc2c(c1)nnn1c3cnccc3nc21 [Compound 128734] | −3.1% | 0.91 Ratio |  | 
COc1cc2cc(c1Cl)N(C)C(=O)C[C@H](OC(=O)[C@H](C)N(C)C(C)=O)[C@]1(C)O[C@H]1[C@H](C)[C@@H]1C[C@@](O)(NC(=O)O1)[C@H](OC)/C=C/C=C(\C)C2 [Compound 153858] |  |  | 0.95 Ratio | 0.3%
CC(=O)NCCCCCCNC(C)=O [Compound 95580] | −3.8% | 0.93 Ratio |  | 
N=N/C(=C\c1c(O)[nH]c2ccccc12)c1ccccc1 [Compound 175274] | 7.0% | 1.09 Ratio |  | 
O=C1NC(c2cccc3ccccc23)Nc2ccccc21 (centres unmarked) [Compound 145669] |  |  | 1.14 Ratio | 14.8%
CC(=O)OC[C@H]1O[C@@H](NC(=O)N(CCCl)N=O)[C@H](OC(C)=O)[C@@H](OC(C)=O)[C@@H]1OC(C)=O [Compound 245432] |  |  | 1.06 Ratio | 37.4%

The remaining lines, values ahead:

Inh. (%) (Inhibition) (MBHA with a DNA substrate) | Int.* (Ratio) (Interference) [1] | Int.* (Ratio) (Interference) [2] | Inh. (%) (Inhibition) (MBHA with DNA substrate) | SMILES
6.9% | 0.96 Ratio |  |  | Cc1cc(Cl)cc2c1NC(=O)C2(O)C(C(=O)c1ccccc1)c1ccccc1 (centres unmarked) [Compound 635435]
 |  | 0.97 Ratio | 15.1% | COC1OC(COCc2ccc(Cl)cc2)C(OCc2ccc(Cl)cc2)C1O (centres unmarked) [Compound 626120]
−4.2% | 0.87 Ratio |  |  | O=C(Nc1ccccc1-c1nn(C(=S)Nc2ccccc2)c(=S)n(C(=S)Nc2ccccc2)c1=O)C(F)(F)F [Compound 623093]
 |  | 1.07 Ratio | −9.6% | COc1ccc(/C=C2\Cc3ccccc3C2=O)cc1OC [Compound 643174]
7.5% | 0.92 Ratio |  |  | Cc1ccc(S(=O)(=O)NC(=O)NC2=NC(C)(C)N(c3ccc(Cl)c(Cl)c3)C(N)=N2)cc1 [Compound 603624]
 |  | 0.95 Ratio | −13.6% | O=C1C=C(Nc2ccccc2C(=O)CC(=O)C(=O)Nc2ccc(Cl)c(Cl)c2)c2ccccc2C1=O [Compound 641250]
 |  | 0.96 Ratio | −12.9% | Cl.Nc1nccc2c1ncn2C1C=C(CO)C(O)C1O (centres unmarked) [Compound 617989]
 |  | 1.06 Ratio | 12.3% | CCOC(=O)Cc1cc(=O)oc2cc(O)ccc12 [Compound 667235]
6.8% | 0.97 Ratio |  |  | CC1=C(C(=O)NCc2ccccc2)C(c2ccccc2O)C(C(=O)NCc2ccccc2)=C(C)N1 [Compound 634928]
8.6% | 0.90 Ratio |  |  | COc1cc(CC(=O)c2cc3c(cc2-c2ccccc2)OCO3)cc(OC)c1OC [Compound 648419]
 |  | 0.90 Ratio | −14.8% | Cn1c(=O)c2nc3sc4c(n3c2n(C)c1=O)C(=O)c1ccccc1C4=O [Compound 634568]
 |  | 0.94 Ratio | −15.1% | CCCn1c(=O)c2ccccc2[n+]2c(-c3ccc([N+](=O)[O-])cc3)csc12.[Br-] [Compound 657603]
8.1% | 0.95 Ratio |  |  | COCC(=O)OC1CCn2c1nc1c2C(=O)C(C)=C(NC(C)=O)C1=O (centres unmarked) [Compound 651084]
−21.5% | 1.00 Ratio |  |  | COc1ccccc1/C=C1\Sc2scc(-c3cccc([N+](=O)[O-])c3)[n+]2C1=O [Compound 657446]
 |  | 0.93 Ratio | −8.0% | COc1ccc2cc(CN3CCC(C4CCN(Cc5ccc6cc(OC)ccc6c5)CC4)CC3)ccc2c1.Cl [Compound 683792]
−3.8% | 1.04 Ratio |  |  | CCCN(CCC)C(=S)Sc1nc(C)nc(N2CCN(c3nc(C)nc(SC(=S)N(CCC)CCC)c3[N+](=O)[O-])CC2)c1[N+](=O)[O-] [Compound 675593]
 |  | 0.99 Ratio | −11.3% | Cc1nc(C(N)=S)sc1C(=O)CC(=O)C(=O)Nc1c(C(C)C)cccc1C(C)C [Compound 642048]
−22.3% | 1.18 Ratio |  |  | CN(NC1=NCCO1)c1ccc2ccccc2c1 [Compound 664286]
 |  | 0.88 Ratio | −1.3% | CCCC/C=C/C=C/C=C/CCCCCCCC(=O)OCC(COC(=O)CCCCCCC/C=C/C1C=CC(CCCC)C(C(=O)O)C1C(=O)O)OC(=O)CCCCCCC/C=C/C=C/C=C/CCCC.OCCNCO (centres unmarked) [Compound 643834]
